Reference: the kinase profiling compilation of Christmann-Franck et al. (2016)

Tests used:
Assay in all cases: radiometric filter-binding kinase assay
[1] = system: AKT2 (human), P31751 [S474D]
AURKA (human) = AURKA (human) (UniProt O14965)
BRSK2 (human) = BRSK2 (human) (UniProt Q8IWQ3); conditions: compound 10.0 µM
CAMKK2 (human) = CAMKK2 (human) (UniProt Q96RR4); conditions: compound 10.0 µM
CHEK2 (human) = CHEK2 (human) (UniProt O96017)
CSNK2A1 (human) = CSNK2A1 (human) (UniProt P68400); conditions: compound 10.0 µM
DYRK1A (human) = DYRK1A (human) (UniProt Q13627)
EEF2K (human) = EEF2K (human) (UniProt O00418); conditions: compound 10.0 µM
FLT1 (human) = FLT1 (human) (UniProt P17948)
GCK (human) = GCK (human) (UniProt Q12851); conditions: compound 10.0 µM
HIPK3 (human) = HIPK3 (human) (UniProt Q9H422); conditions: compound 10.0 µM
IKBKB (human) = IKBKB (human) (UniProt O14920); conditions: compound 10.0 µM
INSRR (human) = INSRR (human) (UniProt P14616)
LCK (mouse) = conditions: compound 10.0 µM; accession and sequence are those of the human protein
MAP2K1 (human) = MAP2K1 (human) (UniProt Q02750); conditions: compound 10.0 µM
MAP3K5 (human) = MAP3K5 (human) (UniProt Q99683); conditions: compound 10.0 µM
MAPK11 (human) = MAPK11 (human) (UniProt Q15759)
MAPK12 (human) = MAPK12 (human) (UniProt P53778)
MAPK14 (human) = MAPK14 (human) (UniProt Q16539)
MAPK15 (human) = MAPK15 (human) (UniProt Q8TD08); conditions: compound 10.0 µM
MAPKAPK3 (human) = MAPKAPK3 (human) (UniProt Q16644)
MARK1 (human) = MARK1 (human) (UniProt Q9P0L2); conditions: compound 10.0 µM
MARK3 (human) = MARK3 (human) (UniProt P27448); conditions: compound 10.0 µM
MKNK1 (human) = MKNK1 (human) (UniProt Q9BUB5); conditions: compound 10.0 µM
NUAK1 (human) = NUAK1 (human) (UniProt O60285)
[2] = system: PAK2 (human), Q13177 [T402E]; conditions: compound 10.0 µM
PIM2 (human) = PIM2 (human) (UniProt Q9P1W9); conditions: compound 10.0 µM
PIM3 (human) = PIM3 (human) (UniProt Q86V86)
PRKCA (human) = PRKCA (human) (UniProt P17252); conditions: compound 10.0 µM
ROCK2 (rat) = conditions: compound 10.0 µM; accession and sequence are those of the human protein
RPS6KA5 KD1 KD2 (human) = RPS6KA5 KD1 KD2 (human) (UniProt O75582); conditions: compound 10.0 µM
[3] = system: RPS6KB1 (human), P23443 [T412E]; conditions: compound 10.0 µM
[4] = system: SGK1 (human), O00141 [S422D]; conditions: compound 10.0 µM
SRC (human) = SRC (human) (UniProt P12931); conditions: compound 10.0 µM
TAOK1 (human) = TAOK1 (human) (UniProt Q7L7X3); conditions: compound 10.0 µM

Sequence of FLT1 (human) (P17948 whole entry, looked up): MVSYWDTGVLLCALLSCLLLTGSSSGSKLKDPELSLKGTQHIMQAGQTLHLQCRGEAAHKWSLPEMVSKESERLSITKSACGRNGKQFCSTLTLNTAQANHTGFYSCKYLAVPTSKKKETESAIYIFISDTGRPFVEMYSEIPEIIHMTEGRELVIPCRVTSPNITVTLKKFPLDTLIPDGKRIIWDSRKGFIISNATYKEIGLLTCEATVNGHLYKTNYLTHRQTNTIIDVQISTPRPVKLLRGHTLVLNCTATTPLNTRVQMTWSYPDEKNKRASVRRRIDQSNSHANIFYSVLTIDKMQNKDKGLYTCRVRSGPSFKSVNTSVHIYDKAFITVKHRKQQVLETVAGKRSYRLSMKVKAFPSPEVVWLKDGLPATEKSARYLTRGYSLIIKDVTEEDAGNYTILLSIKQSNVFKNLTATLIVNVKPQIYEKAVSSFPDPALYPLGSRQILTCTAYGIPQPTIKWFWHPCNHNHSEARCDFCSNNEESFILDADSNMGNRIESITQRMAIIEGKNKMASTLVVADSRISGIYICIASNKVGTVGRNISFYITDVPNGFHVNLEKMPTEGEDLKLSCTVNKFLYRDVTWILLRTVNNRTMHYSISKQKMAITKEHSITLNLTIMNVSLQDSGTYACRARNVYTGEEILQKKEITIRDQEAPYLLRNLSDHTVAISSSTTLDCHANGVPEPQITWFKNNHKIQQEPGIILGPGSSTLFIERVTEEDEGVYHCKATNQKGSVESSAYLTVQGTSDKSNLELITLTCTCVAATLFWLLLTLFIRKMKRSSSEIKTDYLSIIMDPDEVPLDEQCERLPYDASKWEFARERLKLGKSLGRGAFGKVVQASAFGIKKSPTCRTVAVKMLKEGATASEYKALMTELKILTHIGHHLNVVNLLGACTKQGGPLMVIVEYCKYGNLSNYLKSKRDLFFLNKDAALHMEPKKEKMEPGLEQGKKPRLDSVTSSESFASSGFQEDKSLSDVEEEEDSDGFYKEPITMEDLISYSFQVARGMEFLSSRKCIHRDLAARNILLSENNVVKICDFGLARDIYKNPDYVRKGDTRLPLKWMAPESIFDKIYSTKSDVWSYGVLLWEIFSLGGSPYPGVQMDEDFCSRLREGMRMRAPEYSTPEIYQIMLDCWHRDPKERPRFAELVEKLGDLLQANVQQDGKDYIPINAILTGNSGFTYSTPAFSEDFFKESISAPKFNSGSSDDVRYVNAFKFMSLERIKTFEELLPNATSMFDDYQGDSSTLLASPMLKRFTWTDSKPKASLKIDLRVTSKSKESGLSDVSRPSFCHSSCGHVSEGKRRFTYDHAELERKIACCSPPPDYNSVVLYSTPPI
Sequence of MAPKAPK3 (human) (Q16644 whole entry, looked up): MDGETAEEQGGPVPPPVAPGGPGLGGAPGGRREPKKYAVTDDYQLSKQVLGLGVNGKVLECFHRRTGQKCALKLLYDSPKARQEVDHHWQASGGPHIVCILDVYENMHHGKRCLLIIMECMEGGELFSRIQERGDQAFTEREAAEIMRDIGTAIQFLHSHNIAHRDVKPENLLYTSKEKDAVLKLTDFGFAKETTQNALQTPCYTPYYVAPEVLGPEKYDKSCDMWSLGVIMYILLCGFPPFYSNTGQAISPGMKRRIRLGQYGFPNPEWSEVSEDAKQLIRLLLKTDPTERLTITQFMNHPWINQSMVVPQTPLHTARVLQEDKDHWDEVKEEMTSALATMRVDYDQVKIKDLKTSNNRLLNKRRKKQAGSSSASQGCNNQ
Sequence of MAPK12 (human) (P53778 whole entry, looked up): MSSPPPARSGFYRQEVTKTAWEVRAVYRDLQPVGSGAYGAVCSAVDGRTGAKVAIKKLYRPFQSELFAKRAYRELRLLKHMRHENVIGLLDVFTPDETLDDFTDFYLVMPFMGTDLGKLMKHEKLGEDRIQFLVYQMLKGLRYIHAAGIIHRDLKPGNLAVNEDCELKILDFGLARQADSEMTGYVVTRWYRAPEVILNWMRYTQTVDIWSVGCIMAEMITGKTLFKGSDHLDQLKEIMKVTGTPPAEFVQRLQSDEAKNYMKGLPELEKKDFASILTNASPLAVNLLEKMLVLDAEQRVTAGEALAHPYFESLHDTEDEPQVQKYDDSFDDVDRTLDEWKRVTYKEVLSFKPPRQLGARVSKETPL
Sequence of AKT2 (human), P31751 [S474D] (P31751 whole entry S474D, looked up): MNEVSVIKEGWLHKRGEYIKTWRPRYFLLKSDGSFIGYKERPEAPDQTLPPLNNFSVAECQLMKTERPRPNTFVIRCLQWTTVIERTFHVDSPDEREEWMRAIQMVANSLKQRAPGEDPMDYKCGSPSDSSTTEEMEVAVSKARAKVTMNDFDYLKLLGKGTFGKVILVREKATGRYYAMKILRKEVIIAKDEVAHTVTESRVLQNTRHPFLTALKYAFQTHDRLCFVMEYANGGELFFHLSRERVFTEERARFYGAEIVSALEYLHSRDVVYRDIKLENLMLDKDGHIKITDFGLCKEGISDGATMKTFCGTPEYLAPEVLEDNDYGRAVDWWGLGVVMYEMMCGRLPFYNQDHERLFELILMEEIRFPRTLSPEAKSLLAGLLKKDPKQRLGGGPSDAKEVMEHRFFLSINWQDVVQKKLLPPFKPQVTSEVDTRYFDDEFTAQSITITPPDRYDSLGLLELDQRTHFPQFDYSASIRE
Sequence of AURKA (human) (O14965 whole entry, looked up): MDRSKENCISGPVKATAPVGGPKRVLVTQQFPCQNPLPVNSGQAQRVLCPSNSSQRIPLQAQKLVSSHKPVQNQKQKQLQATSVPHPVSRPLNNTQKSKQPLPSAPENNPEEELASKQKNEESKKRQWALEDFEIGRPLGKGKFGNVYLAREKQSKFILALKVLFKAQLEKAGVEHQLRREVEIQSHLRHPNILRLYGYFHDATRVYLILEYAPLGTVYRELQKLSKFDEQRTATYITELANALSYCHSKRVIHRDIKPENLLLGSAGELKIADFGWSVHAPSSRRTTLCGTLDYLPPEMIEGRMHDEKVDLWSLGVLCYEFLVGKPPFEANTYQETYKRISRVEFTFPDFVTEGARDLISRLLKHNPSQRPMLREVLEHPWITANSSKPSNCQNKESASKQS
Sequence of CHEK2 (human) (O96017 whole entry, looked up): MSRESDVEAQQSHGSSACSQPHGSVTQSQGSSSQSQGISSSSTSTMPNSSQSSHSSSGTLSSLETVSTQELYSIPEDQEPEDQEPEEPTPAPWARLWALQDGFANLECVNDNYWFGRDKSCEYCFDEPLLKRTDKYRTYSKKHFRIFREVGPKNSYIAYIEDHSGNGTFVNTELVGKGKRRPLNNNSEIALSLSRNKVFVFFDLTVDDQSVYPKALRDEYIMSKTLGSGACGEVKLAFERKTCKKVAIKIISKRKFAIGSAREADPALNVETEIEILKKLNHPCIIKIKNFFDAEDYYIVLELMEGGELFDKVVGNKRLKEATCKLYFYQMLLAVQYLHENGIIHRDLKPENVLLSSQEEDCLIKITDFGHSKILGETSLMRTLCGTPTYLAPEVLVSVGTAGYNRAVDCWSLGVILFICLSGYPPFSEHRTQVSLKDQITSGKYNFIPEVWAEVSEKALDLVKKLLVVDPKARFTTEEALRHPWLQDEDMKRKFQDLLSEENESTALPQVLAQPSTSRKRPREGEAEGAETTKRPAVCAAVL
Sequence of MAPK14 (human) (Q16539 whole entry, looked up): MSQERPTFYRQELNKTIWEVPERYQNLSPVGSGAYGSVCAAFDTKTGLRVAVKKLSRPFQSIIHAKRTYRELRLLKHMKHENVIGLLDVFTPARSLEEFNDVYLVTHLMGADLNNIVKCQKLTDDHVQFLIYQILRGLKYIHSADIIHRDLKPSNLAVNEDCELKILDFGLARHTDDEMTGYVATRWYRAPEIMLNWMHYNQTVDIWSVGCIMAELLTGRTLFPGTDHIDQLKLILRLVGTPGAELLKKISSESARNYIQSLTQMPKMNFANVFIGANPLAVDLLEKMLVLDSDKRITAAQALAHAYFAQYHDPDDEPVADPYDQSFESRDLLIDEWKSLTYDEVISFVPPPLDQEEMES
Sequence of NUAK1 (human) (O60285 whole entry, looked up): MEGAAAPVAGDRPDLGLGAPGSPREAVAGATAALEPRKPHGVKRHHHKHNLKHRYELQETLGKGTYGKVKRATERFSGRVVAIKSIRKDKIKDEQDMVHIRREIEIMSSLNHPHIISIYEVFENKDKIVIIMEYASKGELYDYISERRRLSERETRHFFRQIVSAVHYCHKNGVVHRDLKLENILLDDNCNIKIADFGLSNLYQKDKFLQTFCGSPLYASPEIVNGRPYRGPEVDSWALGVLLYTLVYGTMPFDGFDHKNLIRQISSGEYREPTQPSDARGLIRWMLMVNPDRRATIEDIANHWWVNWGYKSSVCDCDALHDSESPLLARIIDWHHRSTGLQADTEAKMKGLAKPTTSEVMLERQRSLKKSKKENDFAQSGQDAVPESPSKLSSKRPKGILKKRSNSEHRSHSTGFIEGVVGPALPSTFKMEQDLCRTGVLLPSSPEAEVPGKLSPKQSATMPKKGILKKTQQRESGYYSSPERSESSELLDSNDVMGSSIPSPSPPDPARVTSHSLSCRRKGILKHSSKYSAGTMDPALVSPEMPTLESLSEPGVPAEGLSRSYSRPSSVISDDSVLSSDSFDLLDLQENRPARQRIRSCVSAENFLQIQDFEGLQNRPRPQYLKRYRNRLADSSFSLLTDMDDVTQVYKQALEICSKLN

## Cc1nc(N)sc1-c1csc(Nc2cccnc2)n1
[1]; compound 10.0 µM
  residual activity: 3%
[1]; compound 100.0 µM
  residual activity: 7%
AURKA (human); compound 10.0 µM
  residual activity: 54%
AURKA (human); compound 100.0 µM
  residual activity: 2%
BRSK2 (human)
  residual activity: 70%
CAMKK2 (human)
  residual activity: 62%
CHEK2 (human); compound 10.0 µM
  residual activity: 57%
CHEK2 (human); compound 100.0 µM
  residual activity: 10%
CSNK2A1 (human)
  residual activity: 63%
DYRK1A (human); compound 10.0 µM
  residual activity: 33%
DYRK1A (human); compound 100.0 µM
  residual activity: 11%
EEF2K (human)
  residual activity: 77%
FLT1 (human); compound 10.0 µM
  residual activity: 45%
FLT1 (human); compound 100.0 µM
  residual activity: 6%
GCK (human)
  residual activity: 63%
HIPK3 (human)
  residual activity: 60%
IKBKB (human)
  residual activity: 56%
INSRR (human); compound 10.0 µM
  residual activity: 40%
INSRR (human); compound 100.0 µM
  residual activity: 22%
LCK (mouse)
  residual activity: 94%
MAP2K1 (human)
  residual activity: 80%
MAP3K5 (human)
  residual activity: 96%
MAPK11 (human); compound 10.0 µM
  residual activity: 96%
MAPK11 (human); compound 100.0 µM
  residual activity: 87%
MAPK12 (human); compound 10.0 µM
  residual activity: 15%
MAPK12 (human); compound 100.0 µM
  residual activity: 9%
MAPK14 (human); compound 10.0 µM
  residual activity: 91%
MAPK14 (human); compound 100.0 µM
  residual activity: 78%
MAPK15 (human)
  residual activity: 43%
MAPKAPK3 (human); compound 10.0 µM
  residual activity: 23%
MAPKAPK3 (human); compound 100.0 µM
  residual activity: 5%
MARK1 (human)
  residual activity: 82%
MARK3 (human)
  residual activity: 84%
MKNK1 (human)
  residual activity: 35%
NUAK1 (human); compound 10.0 µM
  residual activity: 42%
NUAK1 (human); compound 100.0 µM
  residual activity: 11%
[2]
  residual activity: 89%
PIM2 (human)
  residual activity: 63%
PIM3 (human); compound 10.0 µM
  residual activity: 17%
PIM3 (human); compound 100.0 µM
  residual activity: 10%
PRKCA (human)
  residual activity: 67%
ROCK2 (rat)
  residual activity: 80%
RPS6KA5 KD1 KD2 (human)
  residual activity: 88%
[3]
  residual activity: 64%
[4]
  residual activity: 96%
SRC (human)
  residual activity: 91%
TAOK1 (human)
  residual activity: 89%
